# In ChEMBL document CHEMBL6083271 (J Med Chem, 2024):
# Calls of active or inactive are those of the source. No cut-off for these calls is given here.
# Legend:
# [1] = system: RS4-11; assay: Antiproliferative activity against human RS4;11 cells assessed as inhibition of cell growth measured after 4 days by WST-8 assay; format: functional, cell-based; conditions: RS4-11, 96 h
# [2] = system: MV4-11; assay: Antiproliferative activity against human MV4-11 cells assessed as inhibition of cell growth measured after 4 days by WST-8 assay; format: functional, cell-based; conditions: MV4-11, 96 h
# [3] = system: RS4-11; assay: Upregulation of MDM2 mRNA level in human RS4;11 cells at 300 nM measured after 3 hrs by qRT-PCR analysis; format: functional, cell-based
# [4] = system: RS4-11; assay: Upregulation of p21 mRNA level in human RS4;11 cells at 300 nM measured after 3 hrs by qRT-PCR analysis; format: functional, cell-based
# [5] = system: RS4-11; assay: Upregulation of PUMA mRNA level in human RS4;11 cells at 300 nM measured after 3 hrs by qRT-PCR analysis; format: functional, cell-based
# [6] = system: RS4-11; assay: Effect of p53 mRNA level in human RS4;11 cells at 300 nM by qRT-PCR analysis; format: functional, cell-based
# [7] = system: MV4-11; assay: Upregulation of MDM2 mRNA level in human MV4-11 cells at 300 nM by qRT-PCR analysis; format: functional, cell-based
# [8] = system: MV4-11; assay: Upregulation of p21 mRNA level in human MV4-11 cells at 300 nM by qRT-PCR analysis; format: functional, cell-based
# [9] = system: MV4-11; assay: Upregulation of PUMA mRNA level in human MV4-11 cells at 300 nM by qRT-PCR analysis; format: functional, cell-based
# [10] = system: RS4-11; assay: Antiproliferative activity against human RS4;11 cells assessed as inhibition of cell growth measured after 4 days in presence of lenalidomide by WST-8 assay; format: functional, cell-based; conditions: time 4.0 day
# [11] = system: MV4-11; assay: Antiproliferative activity against human MV4-11 cells assessed as inhibition of cell growth measured after 4 days in presence of lenalidomide by WST-8 assay; format: functional, cell-based; conditions: time 4.0 day
# [12] = system: RS4-11; assay: Antiproliferative activity against human RS4;11 cells harbouring p53 wild type assessed as inhibition of cell growth measured after 4 days by WST-8 assay; format: functional, cell-based; conditions: RS4-11, 96 h
# [13] = system: RS4-11; assay: Antiproliferative activity against human RS4;11 cells harbouring p53 mutant assessed as inhibition of cell growth measured after 4 days by WST-8 assay; format: functional, cell-based; conditions: RS4-11, 96 h
# [14] = system: RS4-11; assay: Antitumor activity against human RS4;11 cells xenografted in SCID mouse model assessed as tumor regression at 50 mg/kg, iv qd administered every other for 2 weeks and measured upto 30 days by caliper method relative to control; format: functional; conditions: time <= 30 day
# [15] = system: OCI-AML2; assay: Antiproliferative activity against human OCI-AML2 cells assessed as inhibition of cell growth measured after 4 days by WST-8 assay; format: functional, cell-based; conditions: OCI-AML2, 96 h
# [16] = system: OCI-AML-3; assay: Antiproliferative activity against human OCI-AML-3 cells assessed as inhibition of cell growth measured after 4 days by WST-8 assay; format: functional, cell-based; conditions: OCI-AML-3, 96 h
# [17] = system: OCI-AML-5; assay: Antiproliferative activity against human OCI-AML5 cells assessed as inhibition of cell growth measured after 4 days by WST-8 assay; format: functional, cell-based; conditions: OCI-AML-5, 96 h
# [18] = system: MOLM-13; assay: Antiproliferative activity against human MOLM-13 cells assessed as inhibition of cell growth measured after 4 days by WST-8 assay; format: functional, cell-based; conditions: MOLM-13, 96 h
# [19] = system: MOLM-14; assay: Antiproliferative activity against human MOLM-14 cells assessed as inhibition of cell growth measured after 4 days by WST-8 assay; format: functional, cell-based; conditions: MOLM-14, 96 h
# [20] = system: ML-2; assay: Antiproliferative activity against human ML-2 cells assessed as inhibition of cell growth measured after 4 days by WST-8 assay; format: functional, cell-based; conditions: ML-2, 96 h
# [21] = system: SIG-M5; assay: Antiproliferative activity against human SIG-M5 cells assessed as inhibition of cell growth measured after 4 days by WST-8 assay; format: functional, cell-based; conditions: SIG-M5, 96 h
# [22] = system: RS4-11; assay: Upregulation of p53 level in human RS4;11 cells harbouring wild type p53 at 1 to 3 nM measured after 2 hrs by Western blot analysis; format: functional, cell-based; conditions: dose 1-3 nM
# [23] = system: MV4-11; assay: Upregulation of p53 level in human MV4-11 cells at 1 to 3 nM measured after 2 hrs by Western blot analysis; format: functional, cell-based; conditions: dose 1-3 nM
# [24] = system: RS4-11; assay: Downregulation of MDM2 level in human RS4;11 cells at 1 nM measured after 2 hrs by Western blot analysis; format: functional, cell-based
# [25] = system: MV4-11; assay: Downregulation of MDM2 level in human MV4-11 cells at 3 to 30 nM measured after 2 hrs by Western blot analysis; format: functional, cell-based; conditions: dose 3-30 nM
# [26] = Upregulation of MDM2 mRNA level in human RS4;11 cells assessed as fold change at 10 nM measured after 3 hrs by qRT-PCR analysis; format: functional
# [27] = Upregulation of p21 mRNA level in human RS4;11 cells assessed as fold change at 10 nM measured after 3 hrs by qRT-PCR analysis; format: functional
# [28] = Upregulation of PUMA mRNA level in human RS4;11 cells assessed as fold change at 10 nM measured after 3 hrs by qRT-PCR analysis; format: functional
# [29] = system: RS4-11; assay: Effect of p53 mRNA level in human RS4;11 cells at 10 nM by qRT-PCR analysis; format: functional, cell-based
# [30] = Upregulation of p21 mRNA level in human MV4-11 cells assessed as fold increase at 30 nM by qRT-PCR analysis; format: functional
# [31] = Upregulation of PUMA mRNA level in human MV4-11 cells assessed as fold increase at 30 nM by qRT-PCR analysis; format: functional
# [32] = system: MV4-11; assay: Effect on p53 mRNA level in human MV4-11 cells at 30 nM by qRT-PCR analysis; format: functional, cell-based
# [33] = Half life in mouse at 10 mg/kg, iv; format: ADME, organism-based; conditions: in vivo
# [34] = AUC (0 to t) in mouse at 10 mg/kg, iv; format: ADME, organism-based; conditions: in vivo
# [35] = Clearance in mouse at 10 mg/kg, iv; format: ADME, organism-based; conditions: in vivo
# [36] = Volume of distribution at steady state in mouse at 10 mg/kg, iv; format: ADME, organism-based; conditions: in vivo, read-out: Vdss
# [37] = Half life in rat at 5 mg/kg, iv; format: ADME, organism-based; conditions: in vivo
# [38] = AUC (0 to t) in rat at 5 mg/kg, iv; format: ADME, organism-based; conditions: in vivo
# [39] = Clearance in rat at 5 mg/kg, iv; format: ADME, organism-based; conditions: in vivo
# [40] = Volume of distribution at steady state in rat at 5 mg/kg, iv; format: ADME, organism-based; conditions: in vivo, read-out: Vdss
# [41] = Half life in dog at 2.5 mg/kg, iv; format: ADME, organism-based, Canis lupus familiaris; conditions: in vivo
# [42] = AUC (0 to t) in dog at 2.5 mg/kg, iv; format: ADME, organism-based, Canis lupus familiaris; conditions: in vivo
# [43] = Clearance in dog at 2.5 mg/kg, iv; format: ADME, organism-based, Canis lupus familiaris; conditions: in vivo
# [44] = Volume of distribution at steady state in dog at 2.5 mg/kg, iv; format: ADME, organism-based, Canis lupus familiaris; conditions: in vivo, read-out: Vdss
# [45] = system: RS4-11; assay: Antitumor activity against human RS4;11 cells xenografted in female NOD-SCID mouse model assessed as tumor regression at 25 mg/kg, iv administered every other day for 2 weeks by vernier method relative to control; format: functional
# [46] = system: RS4-11; assay: Antitumor activity against human RS4;11 cells xenografted in female NOD-SCID mouse model assessed as reduction in tumor size at 25 mg/kg, iv administered every other day for 2 weeks by vernier method relative to control; format: functional; parameters: scale not given: the % may be the effect or the level left
# [47] = system: RS4-11; assay: Antitumor activity against human RS4;11 cells xenografted in female NOD-SCID mouse model assessed as tumor regression at 25 mg/kg, iv measured upto 34 days by vernier method relative to control; format: functional; conditions: time <= 34 day
# [48] = Toxicity in female NOD-SCID mouse assessed as effect on body weight at 25 mg/kg, iv qd; format: organism-based; conditions: in vivo
# [49] = system: RS4-11; assay: Antitumor activity against human RS4;11 cells xenografted in female NOD-SCID mouse model assessed as median survival time at 25 mg/kg, iv qw (reference value: 47.5 days); format: functional
# [50] = system: RS4-11; assay: Antitumor activity against human RS4;11 cells xenografted in female NOD-SCID mouse model assessed as median survival time at 50 mg/kg, iv qw (reference value: 47.5 days); format: functional
# [51] = system: RS4-11; assay: Downregulation of MDM2 protein level in human RS4;11 cells at 3 nM measured after 2 hrs in presence of lenalidomide by Western blot analysis; format: functional, cell-based
# [52] = system: MV4-11; assay: Downregulation of MDM2 protein level in human MV4-11 cells at 3 nM measured after 2 hrs in presence of lenalidomide by Western blot analysis; format: functional, cell-based
# [53] = system: RS4-11; assay: Upregulation of p53 protein level in human RS4;11 cells at 3 nM measured after 2 hrs in presence of lenalidomide by Western blot analysis; format: functional, cell-based
# [54] = system: MV4-11; assay: Upregulation of p53 protein level in human MV4-11 cells at 3 nM measured after 2 hrs in presence of lenalidomide by Western blot analysis; format: functional, cell-based
structure (smiles),measurement,setting,value
O=C(N[C@H]1CC[C@H](C(=O)O)CC1)[C@@H]1NC2(CCCCC2)[C@@]2(C(=O)Nc3cc(Cl)ccc32)[C@H]1c1cccc(Cl)c1F,IC50,[1],179 nM
same,IC50,[2],93 nM
same,Activity,[3],Active; Least Effect
same,Activity,[4],Active; Least Effect
same,Activity,[5],Active; Least Effect
same,Activity,[6],inactive
same,Activity,[7],Active; Less Effective Than Md-265
same,Activity,[8],Active; Less Effective Than Md-265
same,Activity,[9],Active; Less Effective Than Md-265
same,Activity,[10],Active; Compound Showed Modest Inhibition Of Cell Growth
same,Activity,[11],Active; Compound Showed Minimal Effect
O=C1CCC(N2Cc3c(C#CC4CCN(C(=O)c5ccc(NC(=O)[C@@H]6NC7(CCCCC7)[C@@]7(C(=O)Nc8cc(Cl)ccc87)[C@H]6c6cccc(Cl)c6F)cc5)CC4)cccc3C2=O)C(=O)N1 (some centres not stated),IC50,[12],4 nM
same,IC50,[13],50 nM
same,Activity,[14],100%
same,IC50,[1],3 nM
same,IC50,[2],14 nM
same,IC50,[15],113 nM
same,IC50,[16],7750 nM
same,IC50,[17],148 nM
same,IC50,[18],37 nM
same,IC50,[19],76 nM
same,IC50,[20],11 nM
same,IC50,[21],103 nM
O=C1CCC(N2Cc3c(C#CC4CCN(C(=O)[C@H]5CC[C@H](NC(=O)[C@@H]6NC7(CCCCC7)[C@@]7(C(=O)Nc8cc(Cl)ccc87)[C@H]6c6cccc(Cl)c6F)CC5)CC4)cccc3C2=O)C(=O)N1 (some centres not stated),IC50,[1],0.7 nM
same,IC50,[2],2 nM
same,Activity,[22],Active
same,Activity,[23],Active
same,Activity,[24],Active
same,Activity,[25],Active
same,fold change (FC),[26],8
same,fold change (FC),[27],8
same,fold change (FC),[28],8
same,Activity,[29],inactive
same,fold change (FC),[30],10
same,fold change (FC),[31],3
same,Activity,[32],inactive
same,IC50,[15],24 nM
same,IC50,[16],212 nM
same,IC50,[17],23 nM
same,IC50,[18],5.7 nM
same,IC50,[19],7.6 nM
same,IC50,[20],1.2 nM
same,IC50,[21],20 nM
same,half-life,[33],6.1 h
same,AUC(0-t),[34],156000 ng·h/mL
same,clearance,[35],1.1 mL/min/kg
same,Vd,[36],0.54 L/kg
same,half-life,[37],5.6 h
same,AUC(0-t),[38],13000 ng·h/mL
same,clearance,[39],3.2 mL/min/kg
same,Vd,[40],0.15 L/kg
same,half-life,[41],6.3 h
same,AUC(0-t),[42],5500 ng·h/mL
same,clearance,[43],7.4 mL/min/kg
same,Vd,[44],0.93 L/kg
same,Activity,[45],100%
same,Activity,[46],>70%
same,Activity,[47],100%
same,Activity,[48],Non-toxic
same,MST,[49],78.5 days
same,MST,[50],72 days
same,Activity,[51],inactive
same,Activity,[52],inactive
same,Activity,[53],inactive
same,Activity,[54],inactive
same,Activity,[10],inactive
same,Activity,[11],inactive
